Results reported in patent US11179414B2, “Method for producing protease degradation composition” (LAIMU CORPORATION, priority 2018, dated 2021).

Tested on: adult-derived normal human fibroblasts
Test: Collagen production promoting test (human collagen type 1 ELISA of supernatant)
Format: cell-based
Details: final concentration 1 mg/mL; culture for 3 days; mean of 5 tests
Protocol: As the cells for test, adult-derived normal human fibroblasts bought from Kurabo Industries Ltd. were used.
As a cell growth medium, DMEM added with 10% FBS and […] mixed solution was used; and as a test medium, DMEM added with 1% FBS and 1% penicillin-streptomycin mixed solution was used.
Adult-derived normal human fibroblasts were sown and initiated in a cell growth medium inside a cell culture flask (Corning's T-75), and cultured in a moist environment at 37° C. in the presence of 5% CO2. During this, the medium was replaced every other day, and at the time when the culture reached 80% confluent growth, the cells were collected and used in the following tests.
The cultured fibroblasts were sown in a 96-well plate to be 5×10^3 cells/0.1 mL/well, and cultured therein at 37° C. in the presence of 5% CO2 for 1 day. Subsequently, the cell growth medium in each well was replaced with each test medium added with the composition 1 or L-ascorbic acid 2-glucoside, or with a test medium not added with them (control medium). […] Subsequently, the cells were cultured at 37° C. in the presence of 5% CO2 for 3 days, then the supernatant of the test medium in each well was collected, and using a human collagen-type 1 ELISA kit, the I-type collagen concentration in the supernatant was measured. […]

O=C1O[C@H]([C@@H](O)CO)C(O)=C1O[C@H]1O[C@H](CO)[C@@H](O)[C@H](O)[C@H]1O [L-ascorbic Acid 2-Glucoside, L-ascorbic acid 2-glucoside]
Collagen Production Amount (I-type collagen concentration in supernatant): 4.29 µg/mL
